Experimental data: PubChem BioAssay (NCI)
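Method: 48-hour compound exposure of cells in 96-well plates, five concentrations, linear interpolation of endpoints. TGI marks complete inhibition of growth.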

System: P388 leukemia
Experiment: NCI tumour cell line growth inhibition, 48 h

Nc1ccn([C@@H]2C=C(CO)[C@@H](O)[C@H]2O)c(=O)n1
TGI: 1.84 µM
